Measured values reported in ChEMBL document CHEMBL1154073, “Combining selectivity and affinity predictions using an integrated Support Vector Machine (SVM) approach: An alternative tool to discriminate between the human adenosine A(2A) and A(3) receptor pyrazolo-triazolo-pyrimidine antagonists binding sites” (Bioorg Med Chem, 2009).

Columns and labels:
[1] = biological target: T1, Adenosine receptor A2b (Homo sapiens, UniProt P29275); assay: Antagonist activity at human adenosine A2B receptor expressed in CHO cells assessed as inhibition of NECA-induced adenylyl cyclase activity; assay type: functional, cell-based
T1 sequence (P29275 whole entry): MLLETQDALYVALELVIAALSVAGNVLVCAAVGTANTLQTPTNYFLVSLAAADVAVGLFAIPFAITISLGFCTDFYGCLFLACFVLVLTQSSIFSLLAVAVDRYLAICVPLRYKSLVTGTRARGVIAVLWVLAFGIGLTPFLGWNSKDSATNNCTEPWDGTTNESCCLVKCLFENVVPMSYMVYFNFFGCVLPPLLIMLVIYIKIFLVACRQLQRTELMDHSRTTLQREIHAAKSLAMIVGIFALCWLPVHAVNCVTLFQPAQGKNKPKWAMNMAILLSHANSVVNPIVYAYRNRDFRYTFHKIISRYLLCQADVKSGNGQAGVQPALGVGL

[2] = biological target: T2, Adenosine receptor A1 (Homo sapiens, UniProt P30542); assay: Displacement of [3H]CCPA from human adenosine A1 receptor expressed in CHO cells; assay type: cell-based
T2 sequence (P30542 whole entry): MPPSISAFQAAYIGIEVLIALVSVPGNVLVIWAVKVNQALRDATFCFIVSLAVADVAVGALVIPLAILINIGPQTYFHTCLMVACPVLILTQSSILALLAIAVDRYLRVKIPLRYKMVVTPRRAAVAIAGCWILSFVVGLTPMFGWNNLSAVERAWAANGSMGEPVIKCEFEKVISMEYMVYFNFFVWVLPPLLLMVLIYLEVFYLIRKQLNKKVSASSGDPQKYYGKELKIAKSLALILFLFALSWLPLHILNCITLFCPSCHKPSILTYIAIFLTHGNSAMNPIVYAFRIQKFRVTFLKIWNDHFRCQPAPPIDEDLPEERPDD

[3] = biological target: Adenosine receptor A2a (Homo sapiens, UniProt P29274); assay: biochemical
Chain of Adenosine receptor A2a (P29274 whole entry): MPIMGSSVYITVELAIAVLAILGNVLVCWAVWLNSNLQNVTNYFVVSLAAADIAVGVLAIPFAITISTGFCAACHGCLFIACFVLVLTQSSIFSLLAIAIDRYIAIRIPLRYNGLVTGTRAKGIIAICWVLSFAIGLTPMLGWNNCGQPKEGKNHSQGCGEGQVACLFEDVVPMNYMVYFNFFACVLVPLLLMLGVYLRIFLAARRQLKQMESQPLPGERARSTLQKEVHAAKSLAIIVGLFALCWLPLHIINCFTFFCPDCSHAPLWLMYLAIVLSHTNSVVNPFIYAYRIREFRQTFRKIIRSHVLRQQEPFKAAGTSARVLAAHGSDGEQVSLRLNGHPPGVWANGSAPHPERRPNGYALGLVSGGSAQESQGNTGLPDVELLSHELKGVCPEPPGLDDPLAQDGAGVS
Description: Displacement of [3H]NECA from human adenosine A2A receptor expressed in CHO cells

[4] = biological target: T3, Adenosine receptor A3 (Homo sapiens, UniProt P0DMS8); assay: Displacement of [3H]NECA from human adenosine A3 receptor expressed in CHO cells; assay type: cell-based
T3 sequence (P0DMS8 whole entry): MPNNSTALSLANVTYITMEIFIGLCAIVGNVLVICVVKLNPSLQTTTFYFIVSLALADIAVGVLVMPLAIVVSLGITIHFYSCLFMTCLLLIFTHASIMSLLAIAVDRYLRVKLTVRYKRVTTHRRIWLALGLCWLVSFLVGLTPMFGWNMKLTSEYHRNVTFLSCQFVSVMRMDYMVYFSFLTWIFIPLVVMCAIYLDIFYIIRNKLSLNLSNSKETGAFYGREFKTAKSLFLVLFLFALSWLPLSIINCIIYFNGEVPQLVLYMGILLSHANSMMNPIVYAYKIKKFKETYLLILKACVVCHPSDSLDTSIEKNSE

| IC50 [1] [nM] | Ki [2] [nM] | Ki [3] [nM] | Ki [4] [nM] | SMILES |
| --- | --- | --- | --- | --- |
| > 10000 | 963 | 39.3 | 223 | Cn1cc2c(nc(NC(=O)COc3ccc(Cl)cc3)n3nc(-c4ccco4)nc23)n1 |
| > 10000 | 133 | 62.5 | 0.95 | COc1ccc(CC(=O)Nc2nc3nn(C)cc3c3nc(-c4ccco4)nn23)cc1 |
| 9370 | 154 | 23 | 765 | CCn1cc2c(nc(NC(=O)Cc3ccsc3)n3nc(-c4ccco4)nc23)n1 |
| > 10000 | 444 | 56 | 5.26 | Cn1cc2c(nc(NC(=O)Cc3cccs3)n3nc(-c4ccco4)nc23)n1 |
| > 10000 | 1460 | 193 | 11.2 | Cn1cc2c(nc(NC(=O)Cc3ccc(-c4ccccc4)cc3)n3nc(-c4ccco4)nc23)n1 |
| > 50000 | 726 | 211 | 58.5 | O=C(Cc1ccc(F)cc1)Nc1nc2nn(CCCc3ccccc3)cc2c2nc(-c3ccco3)nn12 |
| 1220 | 22.6 | 2.75 | 56.5 | CC(C)CCn1cc2c(nc(NC(=O)Cc3ccc(Cl)cc3)n3nc(-c4ccco4)nc23)n1 |
| 11100 | 84.3 | 46.9 | 125 | O=C(Cc1ccc(-c2ccccc2)cc1)Nc1nc2nn(CCc3ccccc3)cc2c2nc(-c3ccco3)nn12 |
| 363 | 139 | 216 | 0.25 | Cn1cc2c(nc(NC(=O)C(c3ccccc3)c3ccccc3)n3nc(-c4ccco4)nc23)n1 |
| > 50000 | 557 | 70.9 | 14.2 | CCn1cc2c(nc(NC(=O)Cc3ccc(-c4ccccc4)cc3)n3nc(-c4ccco4)nc23)n1 |
| 13000 | 741 | 54.1 | 0.97 | Cn1cc2c(nc(NC(=O)Cc3ccc(F)cc3)n3nc(-c4ccco4)nc23)n1 |
| > 50000 | 1850 | 156 | 12.7 | Cn1cc2c(nc(NC(=O)Cc3ccc(Cl)cc3)n3nc(-c4ccco4)nc23)n1 |
| > 10000 | 441 | 159 | 5.86 | CC(C)CCn1cc2c(nc(NC(=O)C(c3ccccc3)c3ccccc3)n3nc(-c4ccco4)nc23)n1 |
| > 50000 | 596 | 74.6 | 3.05 | CCn1cc2c(nc(NC(=O)Cc3cccc4ccccc34)n3nc(-c4ccco4)nc23)n1 |
| 6450 | 908 | 45.2 | 44.4 | Cn1cc2c(nc(NC(=O)Cc3c(Cl)cccc3Cl)n3nc(-c4ccco4)nc23)n1 |
| > 100000 | 1170 | 256 | 410 | O=C(Cc1ccc(-c2ccccc2)cc1)Nc1nc2nn(CCCc3ccccc3)cc2c2nc(-c3ccco3)nn12 |
| 5480 | 48.2 | 5.43 | 266 | CC(C)CCn1cc2c(nc(NC(=O)Cc3ccc(C(F)(F)F)cc3)n3nc(-c4ccco4)nc23)n1 |
| 12400 | 388 | 38.7 | 17.3 | CCCn1cc2c(nc(NC(=O)Cc3cccc4ccccc34)n3nc(-c4ccco4)nc23)n1 |
| 15000 | 148 | 15.9 | 196 | CCn1cc2c(nc(NC(=O)Cc3cccs3)n3nc(-c4ccco4)nc23)n1 |
| 1440 | 121 | 18.7 | 207 | CC(C)CCn1cc2c(nc(NC(=O)Cc3c(Cl)cccc3Cl)n3nc(-c4ccco4)nc23)n1 |

| SMILES | IC50 [1] [nM] | Ki [2] [nM] | Ki [3] [nM] | Ki [4] [nM] |
| --- | --- | --- | --- | --- |
| CCCCn1cc2c(nc(NC(=O)Cc3ccsc3)n3nc(-c4ccco4)nc23)n1 | 906 | 25.5 | 3.13 | 189 |
